“And” between values parts separate entries of the source, which are not always exact repeats. Equal entries are not always repeated. Where two headings read alike, the source gives them in different places.
Tests used:
p110α Type Ia human PI3K = molecular target: T1, p110α Type Ia human PI3K (Homo sapiens, UniProt P42336); experiment: In vitro PI3K enzyme assay, Test (b)(i) (AlphaScreen); assay type: biochemical; settings: individual values, measured twice; read-out: IC50 versus p110α Type Ia human PI3K, Test (b)(i)
T1 construct: full length DNA of each of the p110α, p110β and p110δ Type Ia human PI3K p110 isoforms; 6-His; made in house
Source text: (b)(i) In Vitro PI3K Enzyme Assay

Serine 473 in Akt = experiment: In vitro phospho-Ser473 Akt assay, Test (c); assay type: cell-based; settings: MDA-MB-468 human breast adenocarcinoma cells, 2 hours; read-out: IC50 versus Serine 473 in Akt, Test (c)
Method: (c) In Vitro Phospho-SeR473 Akt Assay
This assay determines the ability of test compounds to inhibit phosphorylation of Serine 473 in Akt as assessed using Acumen Explorer technology (Acumen Bioscience Limited), a plate reader that can be used to rapidly quantitate features of images generated by laser-scanning.
A MDA-MB-468 human breast adenocarcinoma cell line (LGC Promochem, Teddington, Middlesex, UK, Catalogue No. HTB-132) was routinely maintained at 37° C. with 5% CO2 up to a confluency of 70-90% in DMEM containing 10% heat-inactivated FCS and 1% L-glutamine.
For the assay, the cells were detached from the culture flask using ‘Accutase’ (Innovative Cell Technologies Inc., San Diego, Calif., USA; Catalogue No. AT104) using standard tissue culture methods and resuspended in media to give 1.7×10^5 cells per mL. […]
All subsequent aspiration and wash steps were carried out using a Tecan 96 well plate washer (aspiration speed 10 mm/sec). […] An aliquot of PBS (50 μl) was added to each well and the plates were sealed with black plate sealers and the fluorescence signal was detected and analysed.
Fluorescence dose response data obtained with each compound were analysed and the degree of inhibition of Serine 473 in Akt was expressed as an IC50 value.

mTOR kinase = molecular target: T2, mTOR kinase (Homo sapiens, UniProt P42345); experiment: In vitro mTOR kinase assay, Test (a)(i) (AlphaScreen); assay type: biochemical
T2 construct: FLAG; made in house
Method: (a)(i) In Vitro mTOR Kinase Assay
A C-terminal truncation of mTOR encompassing amino acid residues 1362 to 2549 of mTOR (EMBL Accession No. L34075) was stably expressed as a FLAG-tagged fusion in HEK293 cells as described by Vilella-Bach et al., […], 1999, 274, 4266-4272. The HEK293 FLAG-tagged mTOR (1362-2549) stable cell line was routinely maintained at 37° C. with 5% CO2 up to a confluency of 70-90% in Dulbecco's modified Eagle's growth medium (DMEM; Invitrogen Limited, Paisley, UK Catalogue No. 41966-029) containing 10% heat-inactivated foetal calf serum (FCS; Sigma, Poole, Dorset, UK, Catalogue No. F0392), 1% L-glutamine (Gibco, Catalogue No. 25030-024) and 2 mg/ml Geneticin (G418 sulfate; Invitrogen Limited, UK Catalogue No. 10131-027). Following expression in the mammalian HEK293 cell line, expressed protein was purified using the FLAG epitope tag using standard purification techniques.
A 30 μl mixture of recombinant purified mTOR enzyme, 1 μM biotinylated peptide substrate (Biotin-Ahx-[…]NH2; Bachem UK Ltd), ATP (20 μM) and a buffer solution [comprising Tris-HCl pH7.4 buffer (50 mM), EGTA (0.1 mM), bovine serum albumin (0.5 mg/mL), DTT (1.25 mM) and manganese chloride (10 mM)] was agitated at room temperature for 90 minutes.
These assay solutions were incubated for 2 hours at room temperature.
Phosphorylated biotinylated peptide is formed in situ as a result of mTOR mediated phosphorylation. The phosphorylated biotinylated peptide that is associated with AlphaScreen Streptavidin donor beads forms a complex with the p70 S6 Kinase (T389) 1A5 Monoclonal Antibody that is associated with Alphascreen Protein A acceptor beads. […] Accordingly, the presence of mTOR kinase activity results in an assay signal. In the presence of an mTOR kinase inhibitor, signal strength is reduced.

T2 sequence (P42345 1362-2549): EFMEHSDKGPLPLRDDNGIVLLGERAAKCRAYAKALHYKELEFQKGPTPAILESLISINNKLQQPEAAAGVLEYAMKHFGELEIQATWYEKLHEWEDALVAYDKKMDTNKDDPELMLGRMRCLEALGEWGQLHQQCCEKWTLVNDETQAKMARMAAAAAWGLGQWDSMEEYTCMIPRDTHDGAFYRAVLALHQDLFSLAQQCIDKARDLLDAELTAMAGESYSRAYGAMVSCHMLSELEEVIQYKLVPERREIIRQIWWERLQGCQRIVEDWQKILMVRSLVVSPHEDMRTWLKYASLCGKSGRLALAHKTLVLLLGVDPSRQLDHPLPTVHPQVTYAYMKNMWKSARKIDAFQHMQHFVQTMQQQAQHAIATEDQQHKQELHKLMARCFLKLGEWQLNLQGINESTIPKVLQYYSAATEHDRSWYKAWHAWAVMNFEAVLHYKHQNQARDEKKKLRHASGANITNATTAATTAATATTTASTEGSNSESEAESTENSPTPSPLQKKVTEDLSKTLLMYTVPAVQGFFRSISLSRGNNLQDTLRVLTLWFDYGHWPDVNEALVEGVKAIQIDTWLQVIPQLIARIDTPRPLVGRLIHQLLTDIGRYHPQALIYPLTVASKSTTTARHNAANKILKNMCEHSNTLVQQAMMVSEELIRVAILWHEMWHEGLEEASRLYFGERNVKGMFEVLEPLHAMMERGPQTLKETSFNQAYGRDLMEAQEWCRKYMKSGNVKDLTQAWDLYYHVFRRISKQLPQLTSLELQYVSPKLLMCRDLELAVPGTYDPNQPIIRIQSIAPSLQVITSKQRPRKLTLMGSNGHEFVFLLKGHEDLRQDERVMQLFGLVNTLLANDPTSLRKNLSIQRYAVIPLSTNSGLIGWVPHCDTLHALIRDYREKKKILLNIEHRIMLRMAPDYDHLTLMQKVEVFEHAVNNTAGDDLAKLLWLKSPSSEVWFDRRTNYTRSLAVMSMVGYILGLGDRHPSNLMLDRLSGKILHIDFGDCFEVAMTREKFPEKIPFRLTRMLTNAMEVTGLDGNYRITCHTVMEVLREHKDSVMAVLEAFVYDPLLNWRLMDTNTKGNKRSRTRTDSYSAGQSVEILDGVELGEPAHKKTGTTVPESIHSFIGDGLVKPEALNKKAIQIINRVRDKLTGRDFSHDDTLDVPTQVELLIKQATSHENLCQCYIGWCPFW
T1 sequence (P42336 whole entry, canonical isoform): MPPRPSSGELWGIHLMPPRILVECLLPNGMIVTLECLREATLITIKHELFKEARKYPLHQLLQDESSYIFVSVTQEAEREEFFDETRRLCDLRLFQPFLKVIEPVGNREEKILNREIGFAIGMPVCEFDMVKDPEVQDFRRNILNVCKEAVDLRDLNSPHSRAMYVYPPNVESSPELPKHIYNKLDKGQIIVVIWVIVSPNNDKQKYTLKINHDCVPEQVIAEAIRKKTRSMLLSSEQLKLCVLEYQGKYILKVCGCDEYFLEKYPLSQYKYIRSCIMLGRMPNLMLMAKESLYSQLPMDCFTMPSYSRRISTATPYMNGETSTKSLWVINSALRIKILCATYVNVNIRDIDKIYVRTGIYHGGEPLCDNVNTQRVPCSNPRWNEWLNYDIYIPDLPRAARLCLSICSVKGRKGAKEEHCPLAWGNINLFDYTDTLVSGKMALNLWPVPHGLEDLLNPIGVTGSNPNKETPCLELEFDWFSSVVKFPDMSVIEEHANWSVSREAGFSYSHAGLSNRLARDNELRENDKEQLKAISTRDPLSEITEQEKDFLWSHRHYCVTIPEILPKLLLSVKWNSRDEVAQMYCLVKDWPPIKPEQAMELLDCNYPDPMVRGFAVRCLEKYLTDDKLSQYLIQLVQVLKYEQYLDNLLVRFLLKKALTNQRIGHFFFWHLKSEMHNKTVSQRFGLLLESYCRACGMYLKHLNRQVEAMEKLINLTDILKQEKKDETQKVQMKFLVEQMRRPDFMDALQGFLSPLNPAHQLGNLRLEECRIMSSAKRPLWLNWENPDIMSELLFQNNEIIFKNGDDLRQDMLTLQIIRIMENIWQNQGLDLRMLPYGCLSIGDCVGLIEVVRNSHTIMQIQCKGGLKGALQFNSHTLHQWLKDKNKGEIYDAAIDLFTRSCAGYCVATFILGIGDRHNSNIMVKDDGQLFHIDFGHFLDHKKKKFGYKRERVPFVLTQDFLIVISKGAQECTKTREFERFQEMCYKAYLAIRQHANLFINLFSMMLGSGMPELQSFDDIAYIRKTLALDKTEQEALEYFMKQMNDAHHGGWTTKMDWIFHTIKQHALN
T1 sequence (P27986 whole entry partner, canonical isoform): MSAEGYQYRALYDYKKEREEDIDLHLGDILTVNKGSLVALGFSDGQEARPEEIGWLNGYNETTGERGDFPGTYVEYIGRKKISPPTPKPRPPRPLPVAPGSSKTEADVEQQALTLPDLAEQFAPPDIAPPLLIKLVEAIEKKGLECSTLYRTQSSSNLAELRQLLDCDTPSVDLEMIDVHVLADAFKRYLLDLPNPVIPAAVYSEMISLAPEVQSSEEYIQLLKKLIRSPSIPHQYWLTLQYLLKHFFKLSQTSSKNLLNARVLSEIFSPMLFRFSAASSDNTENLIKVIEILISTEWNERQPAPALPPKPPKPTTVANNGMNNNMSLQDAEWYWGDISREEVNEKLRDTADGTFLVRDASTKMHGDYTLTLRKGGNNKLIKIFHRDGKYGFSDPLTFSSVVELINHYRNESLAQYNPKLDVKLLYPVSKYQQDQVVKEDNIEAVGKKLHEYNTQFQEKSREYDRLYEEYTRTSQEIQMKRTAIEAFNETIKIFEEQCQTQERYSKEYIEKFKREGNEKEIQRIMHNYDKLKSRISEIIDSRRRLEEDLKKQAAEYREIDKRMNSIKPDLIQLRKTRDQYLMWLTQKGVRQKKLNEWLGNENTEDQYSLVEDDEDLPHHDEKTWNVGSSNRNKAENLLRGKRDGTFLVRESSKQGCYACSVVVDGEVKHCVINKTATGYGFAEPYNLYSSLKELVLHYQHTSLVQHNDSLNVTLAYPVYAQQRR

CN(C)CC(=O)Nc1ccc(-c2nc(CS(C)(=O)=O)cc(N3CCOCC3)n2)cc1 [Example 5p, 2-dimethylamino-N-[4-[4-(methylsulfonylmethyl)-6-morpholin-4-yl-pyrimidin-2-yl]phenyl]acetamide]
IC50 (p110α Type Ia human PI3K): 93.3 µM and 51.6 µM | IC50 (Serine 473 in Akt): 7.77 µM | IC50 (mTOR kinase; individual values, measured twice, read-out: IC50 versus mTOR kinase, Test (a)(i)): 2.46 µM and 1.64 µM | IC50 (mTOR kinase; recombinant FLAG-tagged mTOR (1362-2549), ATP 20 μM, read-out: Test (a)(i) IC50): 2 µM

— US20100261723A1, “TRISUBSTITUTED PYRIMIDINE DERIVATIVES FOR THE TREATMENT OF PROLIFERATIVE DISEASES” (ASTRAZENECA AB, priority 2007, published 2010)
